Experimental data reported in publication PMC8125234, “Cardiolipin Stabilizes and Increases Catalytic Efficiency of Carnitine Palmitoyltransferase II and Its Variants S113L, P50H, and Y479F” (International Journal of Molecular Sciences, 2021).
Residue numbers refer to the chain shown, from its start.

Experiments:
Assay in all cases: nanoDSF protein stability in presence of CL or β-OG
Assay type in all cases: binding
CPT II WT = biological target: T1, CPT II WT (Homo sapiens, UniProt P23786)
T1 construct: made in house; host or cells: Escherichia coli BL21Gold DE
T1 sequence (P23786 26-658): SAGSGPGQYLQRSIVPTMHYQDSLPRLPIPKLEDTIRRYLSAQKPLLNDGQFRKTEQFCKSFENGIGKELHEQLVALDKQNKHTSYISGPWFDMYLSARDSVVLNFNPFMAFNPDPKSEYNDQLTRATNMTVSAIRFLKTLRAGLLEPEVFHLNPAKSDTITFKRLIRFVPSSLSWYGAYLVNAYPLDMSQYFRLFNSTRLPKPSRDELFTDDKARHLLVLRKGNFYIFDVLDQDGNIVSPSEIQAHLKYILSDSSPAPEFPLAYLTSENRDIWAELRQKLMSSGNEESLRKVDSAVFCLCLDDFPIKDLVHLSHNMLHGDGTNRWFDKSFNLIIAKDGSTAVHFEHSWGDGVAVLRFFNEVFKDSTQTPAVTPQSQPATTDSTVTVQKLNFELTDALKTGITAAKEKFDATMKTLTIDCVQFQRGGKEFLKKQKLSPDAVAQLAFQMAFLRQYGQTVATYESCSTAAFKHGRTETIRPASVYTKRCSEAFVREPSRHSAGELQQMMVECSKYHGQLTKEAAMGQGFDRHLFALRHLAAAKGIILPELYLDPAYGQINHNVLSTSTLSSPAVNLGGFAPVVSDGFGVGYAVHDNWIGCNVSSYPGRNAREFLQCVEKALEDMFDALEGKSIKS
Experimental: (§1) NanoDSF is a standard method for the investigation of the folding/unfolding of proteins and the interaction of proteins with effectors/ligands/substrates
(§2) The protein stability was investigated applying nano differential scanning fluorimetry (nanoDSF) using a protein concentration of 1 mg/mL in assay buffer. […] The heating rate has been set to 1 °C per min. A heating ramp from 15 to 95 °C was determined. The nanoDSF data were obtained using a Prometheus NT.48 device. First derivatives were calculated using PR.ThermControl software (NanoTemper Technologies GmbH, Munich, Germany). Experiments were performed at least three times independently as double determination.

CPT II variant Y479F = biological target: T2, CPT II variant Y479F (Homo sapiens, UniProt P23786, Y479F)
T2 construct: made in house; host or cells: Escherichia coli BL21Gold DE
T2 sequence (P23786 26-658 Y479F): T1 sequence (P23786 26-658) with Y454F
Experimental: as §1, §2

CPT II variant P50H = biological target: T3, CPT II variant P50H (Homo sapiens, UniProt P23786, P50H)
T3 construct: made in house; host or cells: Escherichia coli BL21Gold DE
T3 sequence (P23786 26-658 P50H): T1 sequence (P23786 26-658) with P25H
Experimental: as §1, §2

CPT II variant S113L = biological target: T4, CPT II variant S113L (Homo sapiens, UniProt P23786, S113L)
T4 construct: made in house; host or cells: Escherichia coli BL21Gold DE
T4 sequence (P23786 26-658 S113L): T1 sequence (P23786 26-658) with S88L
Experimental: as §1, §2

[1] = reference TM of WT in buffer (ΔTM = 0 °C)

Increase of ΔTM-value due to the addition of CL (CPT II WT; 0.25 mM CL): +10 °C
TM in Buffer with 0.25 mM CL (CPT II WT; 1 mg/mL protein): 47.6 °C
∆TM in Buffer with 0.25 mM CL (CPT II WT; [1]): 10.6 °C
Increase of ΔTM-value due to the addition of CL (CPT II variant Y479F; 0.25 mM CL): +10 °C
TM in Buffer with 0.25 mM CL (CPT II variant Y479F; 1 mg/mL protein): 45.9 ± 1.0 °C
∆TM in Buffer with 0.25 mM CL (CPT II variant Y479F; [1]): 9.0 ± 0.1 °C
Increase of ΔTM-value due to the addition of CL (CPT II variant P50H; 0.25 mM CL): +13 °C
TM in Buffer with 0.25 mM CL (CPT II variant P50H; 1 mg/mL protein): 40.2 ± 0.7 °C
∆TM in Buffer with 0.25 mM CL (CPT II variant P50H; [1]): 3.3 ± 0.1 °C
Increase of ΔTM-value due to the addition of CL (CPT II variant S113L; 0.25 mM CL): +10 °C
∆TM in Buffer with 0.25 mM CL (CPT II variant S113L; [1]): 6.5 ± 0.2 °C
Substance: Cardiolipin [CL]
